The subject of the data set is human meltrin α RNA. Put plainly: Suppression of human meltrin α expression by antisense compound in RD cell (real time PCR). Type of data set: cell-based. Conditions: RD cell, corrected by GAPDH. The method in brief: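 RD cells transfected with heat-denatured antisense oligodeoxynucleotide plus Lipofectin in Opti-MEM for 4 h at 37° C, then cultured 18 h. Meltrin α RNA quantified by TaqMan RT-PCR against plasmid standard curve, GAPDH-corrected; suppression vs untreated cells, rated +/++/+++ for ≥30/50/70%.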

In the oligonucleotide strings, read from the 5' end, every base follows the letter of its sugar. An asterisk marks phosphorothioate; unmarked linkages are phosphodiester. Other units and linkages are bracketed, terminal groups are in braces. A string of capitals states the bases alone. d = 2'-deoxy (DNA)

Data on 36 substances can be found in patent US20080292619A1, “Pharmaceutical Composition Containing Meltrin Antagonist” (MOCHIDA PHARMACEUTICAL CO., LTD., priority 2004, published 2008).

For “H018: cagggcgagcaggagggcgc (CAGGGCGAGCAGGAGGGCGC; antisense; DNA, all phosphorothioate, methylation of C not given here)”, the “suppression rate of expression, 50 nM” value was “+ (“+” when the suppression rate was at least 30%)” and the “suppression rate of expression, 200 nM” value is given as “++ (“++” when the suppression rate was at least 50%)”. Regarding “H131 + 10: aggccttttccaaggtggcc (AGGCCTTTTCCAAGGTGGCC; antisense; DNA, all phosphorothioate, methylation of C not given here)”, the “suppression rate of expression, 50 nM” value was “+ (“+” when the suppression rate was at least 30%)”. As to “H090: ggcccctgtgcagaactctg (dG*dG*dC*dC*dC*dC*dT*dG*dT*dG*dC*dA*dG*dA*dA*dC*dT*dC*dT*dG; antisense)”, the “suppression rate of expression, 200 nM” value is “++ (“++” when the suppression rate was at least 50%)”. As to “H144 + 6: tgcaggcagaggcttctgag (TGCAGGCAGAGGCTTCTGAG; antisense; DNA, all phosphorothioate, methylation of C not given here)”, the “suppression rate of expression, 50 nM” value is on record as “++ (“++” when the suppression rate was at least 50%)”. Take “H003: ccgttgcaataaatgagcaa (CCGTTGCAATAAATGAGCAA; antisense; DNA, all phosphorothioate, methylation of C not given here)”: the “suppression rate of expression, 200 nM” value is recorded as “+ (“+” when the suppression rate was at least 30%)”.

For “H055: tccacgcctaccaacacgat (dT*dC*dC*dA*dC*dG*dC*dC*dT*dA*dC*dC*dA*dA*dC*dA*dC*dG*dA*dT; antisense)”, the “suppression rate of expression, 200 nM” value was “++ (“++” when the suppression rate was at least 50%)”.

For the substance “H001: gactaggaagagcgttagtg (GACTAGGAAGAGCGTTAGTG; antisense; DNA, all phosphorothioate, methylation of C not given here)”, the “suppression rate of expression, 200 nM” value was “+ (“+” when the suppression rate was at least 30%)”.

With “H148: cggagcccagtctcccattg (dC*dG*dG*dA*dG*dC*dC*dC*dA*dG*dT*dC*dT*dC*dC*dC*dA*dT*dT*dG; antisense)”, the “suppression rate of expression, 50 nM” value is “+ (“+” when the suppression rate was at least 30%)” and the “suppression rate of expression, 200 nM” value is recorded as “++ (“++” when the suppression rate was at least 50%)”.

“H159: actgacggcagtagctcaaa (dA*dC*dT*dG*dA*dC*dG*dG*dC*dA*dG*dT*dA*dG*dC*dT*dC*dA*dA*dA; antisense)”: the “suppression rate of expression, 200 nM” value is “++ (“++” when the suppression rate was at least 50%)”.

For “H026: gtcgaatattcagcacttct (GTCGAATATTCAGCACTTCT; antisense; DNA, all phosphorothioate, methylation of C not given here)”, the “suppression rate of expression, 200 nM” value was “+ (“+” when the suppression rate was at least 30%)”.

For the substance “H247: aacctttttaatagtatata (DNA dA*dA*dC*dC*dT*dT*dT*dT*dT*dA*dA*dT*dA*dG*dT*dA*dT*dA*dT*dA; antisense)”, the “suppression rate of expression, 200 nM” value is “+ (“+” when the suppression rate was at least 30%)”. For the substance “H139 + 12: ggtgcacgtggggcccggtg (GGTGCACGTGGGGCCCGGTG; antisense; DNA, all phosphorothioate, methylation of C not given here)”, the “suppression rate of expression, 50 nM” value is on record as “+ (“+” when the suppression rate was at least 30%)”. Regarding “H143: ttggcttacaggtcccctgg (TTGGCTTACAGGTCCCCTGG; antisense; DNA, all phosphorothioate, methylation of C not given here)”, the “suppression rate of expression, 50 nM” value is listed as “+ (“+” when the suppression rate was at least 30%)” and the “suppression rate of expression, 200 nM” value was “+++ (“+++” when the suppression rate was at least 70%)”. For “H132 + 17: gggtaggaatctggcggctt (GGGTAGGAATCTGGCGGCTT; antisense; DNA, all phosphorothioate, methylation of C not given here)”, the “suppression rate of expression, 50 nM” value is “++ (“++” when the suppression rate was at least 50%)”. For “H119: agccaaacttgtcacagaag (AGCCAAACTTGTCACAGAAG; antisense; DNA, all phosphorothioate, methylation of C not given here)”, the “suppression rate of expression, 200 nM” value is given as “+ (“+” when the suppression rate was at least 30%)”. On the same count and under the same terms, in the case of “H076: tccaggctggtctccaagtc (dT*dC*dC*dA*dG*dG*dC*dT*dG*dG*dT*dC*dT*dC*dC*dA*dA*dG*dT*dC)” it was “++ (“++” when the suppression rate was at least 50%)”. For the substance “H145 + 5: ttgttctggccagaggatct (dT*dT*dG*dT*dT*dC*dT*dG*dG*dC*dC*dA*dG*dA*dG*dG*dA*dT*dC*dT; antisense)”, the “suppression rate of expression, 50 nM” value is given as “+++ (“+++” when the suppression rate was at least 70%)”. With “H111: acactttgtgcctgcaagca (dA*dC*dA*dC*dT*dT*dT*dG*dT*dG*dC*dC*dT*dG*dC*dA*dA*dG*dC*dA; antisense)”, the “suppression rate of expression, 200 nM” value is reported as “+ (“+” when the suppression rate was at least 30%)”. Regarding “H183: gtctgcaacccaggttctca (dG*dT*dC*dT*dG*dC*dA*dA*dC*dC*dC*dA*dG*dG*dT*dT*dC*dT*dC*dA; antisense)”, the “suppression rate of expression, 200 nM” value was “++ (“++” when the suppression rate was at least 50%)”.

Consider “H184: ggctacaccttaagattcct (dG*dG*dC*dT*dA*dC*dA*dC*dC*dT*dT*dA*dA*dG*dA*dT*dT*dC*dC*dT; antisense)”, for which the “suppression rate of expression, 200 nM” value is given as “+ (“+” when the suppression rate was at least 30%)”. For the substance “H075: cttcctgctgcaactgctga (dC*dT*dT*dC*dC*dT*dG*dC*dT*dG*dC*dA*dA*dC*dT*dG*dC*dT*dG*dA)”, the “suppression rate of expression, 200 nM” value is reported as “+ (“+” when the suppression rate was at least 30%)”.

As for “H149 + 10: tattgtggagcaggtctgag (dT*dA*dT*dT*dG*dT*dG*dG*dA*dG*dC*dA*dG*dG*dT*dC*dT*dG*dA*dG; antisense)”, the “suppression rate of expression, 50 nM” value is “+ (“+” when the suppression rate was at least 30%)”. As for “H169: catcctgtccagaatcccat (dC*dA*dT*dC*dC*dT*dG*dT*dC*dC*dA*dG*dA*dA*dT*dC*dC*dC*dA*dT; antisense)”, the “suppression rate of expression, 200 nM” value is listed as “++ (“++” when the suppression rate was at least 50%)”. For the substance “H139 + 18: acgctaggtgcacgtggggc (ACGCTAGGTGCACGTGGGGC; antisense; DNA, all phosphorothioate, methylation of C not given here)”, the “suppression rate of expression, 50 nM” value is recorded as “++ (“++” when the suppression rate was at least 50%)”. Turning to “H110: caagccctgggtccggcatg (dC*dA*dA*dG*dC*dC*dC*dT*dG*dG*dG*dT*dC*dC*dG*dG*dC*dA*dT*dG; antisense)”, the “suppression rate of expression, 50 nM” value is listed as “+ (“+” when the suppression rate was at least 30%)” and the “suppression rate of expression, 200 nM” value was “++ (“++” when the suppression rate was at least 50%)”. As for “H065: ccccagactggtctgccgtg (dC*dC*dC*dC*dA*dG*dA*dC*dT*dG*dG*dT*dC*dT*dG*dC*dC*dG*dT*dG; antisense)”, the “suppression rate of expression, 200 nM” value is reported as “++ (“++” when the suppression rate was at least 50%)”. On to “H063: catgccgatggtggtccctt (dC*dA*dT*dG*dC*dC*dG*dA*dT*dG*dG*dT*dG*dG*dT*dC*dC*dC*dT*dT; antisense)”, for which the “suppression rate of expression, 200 nM” value is “++ (“++” when the suppression rate was at least 50%)”. With “H136 + 17: gagggacattcaggccgttg (GAGGGACATTCAGGCCGTTG; antisense; DNA, all phosphorothioate, methylation of C not given here)”, the “suppression rate of expression, 50 nM” value is “+ (“+” when the suppression rate was at least 30%)”. As to “H139 + 19: gacgctaggtgcacgtgggg (GACGCTAGGTGCACGTGGGG; antisense; DNA, all phosphorothioate, methylation of C not given here)”, the “suppression rate of expression, 50 nM” value is “+ (“+” when the suppression rate was at least 30%)”.

In the case of “H197: tgctcagctccaagcagtat (dT*dG*dC*dT*dC*dA*dG*dC*dT*dC*dC*dA*dA*dG*dC*dA*dG*dT*dA*dT; antisense)”, the “suppression rate of expression, 200 nM” value is listed as “++ (“++” when the suppression rate was at least 50%)”.

On to “H132 + 18: tgggtaggaatctggcggct (TGGGTAGGAATCTGGCGGCT; antisense; DNA, all phosphorothioate, methylation of C not given here)”, for which the “suppression rate of expression, 50 nM” value is “+ (“+” when the suppression rate was at least 30%)”. “H249: aaaaagacaatgcccacgta (DNA dA*dA*dA*dA*dA*dG*dA*dC*dA*dA*dT*dG*dC*dC*dC*dA*dC*dG*dT*dA; antisense)”: the “suppression rate of expression, 200 nM” value is “++ (“++” when the suppression rate was at least 50%)”. With “H130 + 5: gagcctgacagggttggaag (GAGCCTGACAGGGTTGGAAG; antisense; DNA, all phosphorothioate, methylation of C not given here)”, the “suppression rate of expression, 50 nM” value is recorded as “++ (“++” when the suppression rate was at least 50%)”. For the substance “H027: ttctttgctttcccgttgta (TTCTTTGCTTTCCCGTTGTA; antisense; DNA, all phosphorothioate, methylation of C not given here)”, the “suppression rate of expression, 200 nM” value was “+ (“+” when the suppression rate was at least 30%)”. Consider “H137 + 4: tggggctgagggacattcag (TGGGGCTGAGGGACATTCAG; antisense; DNA, all phosphorothioate, methylation of C not given here)”, for which the “suppression rate of expression, 50 nM” value is reported as “++ (“++” when the suppression rate was at least 50%)”. Consider “H017: gggcgggggacacgggcagc (GGGCGGGGGACACGGGCAGC; antisense; DNA, all phosphorothioate, methylation of C not given here)”, for which the “suppression rate of expression, 200 nM” value is “++ (“++” when the suppression rate was at least 50%)”.
